The test system of assay [1] is SPX1 phosphate starvation biomarker (pSPX1::GUS). Nature of the assay: Chemical activity assessment: SPX1 suppression in Arabidopsis pSPX1::GUS reporter line (GUS stained area). Type of assay: in vivo, Arabidopsis thaliana. On the procedure:
(§1) All Arabidopsis plant experiments were performed using the Arabidopsis thaliana Columbia-0 background. The Arabidopsis pSPX1::GUS line is described in the […] 2008, 54: 965-975. For rice, the cultivar Nipponbare was used. For maize, the cultivars DKC 2931 and 8104 were used for regular pot experiments and sand-based pot experiments, respectively. For soybean, the cultivar Primus was used. […] The medium was solidified due to the addition of 0.6% Gelrite, unless stated otherwise. In case of vertical plates (root length and root hair measurements), the medium was supplied with 0.5% of sucrose and 1 μM (low phosphate, 1 μM KH2PO4, 9.9 mM KCl), 10 μM (low phosphate 10 μM KH2PO4, 9.9 mM KCl) or 1.25 mM KH2PO4 (high phosphate). Arabidopsis seeds were stratified for 2 days at 4° C. before germination. Seedlings were germinated in climate-controlled growth chambers at 22° C. under continuous light ([…] m^−2 s^−1). Husked rice seeds were germinated on wetted Whatman paper for 2 days at 37° C. and then transferred to Sterivent boxes or square Petri dishes with solid medium. Maize and soybean seeds were wetted 24 hours at room temperature prior to sowing in pots.
For the chemical activity assessment 3 to 8 seeds per well of Arabidopsis pSPX1::GUS line were sown in 96-well plates containing 150 μl of low phosphate modMS liquid medium containing 1% of sucrose. Compounds were added in 50 μM concentration, starting from a 5 mM stock of compounds solved in DMSO. Different chemical substances were separately added to different wells. Per plate, 16 control wells were used, 8 containing only the low phosphate medium and 1% DMSO, and 8 containing high phosphate medium and 1% DMSO. 7 days after germination, plates were scanned using a flatbed scanner (EPSON Expression 11000XL) and analyzed for leaf size. After scanning, the growth medium was replaced by GUS staining solution (see Plant Mol. Biol. Rep. 1994, 12: 37-42 for details) and incubated for 1.5 hours at 37° C. The plates were scanned a second time and analyzed for GUS signal area. Measurements of both leaf area and GUS signal area were conducted by filtering out and measure the green and blue signal, respectively using ImageJ software. If the green leaf area was 50% or less than the control, samples were omitted. Additionally, all results were visually screened for leaf size and GUS signal.
To identify new substances that suppress the expression of the SPX1 phosphate starvation biomarker, we used an Arabidopsis SPX1 reporter line pSPX1::GUS. […] This observation was confirmed in two experimental repeats.

The test system of assay [2] is Arabidopsis thaliana Columbia-0. As to the kind of experiment: Arabidopsis vertical plate growth assay (primary root length, shoot biomass). Type of assay: in vivo. As to conditions: low phosphate. As for the experimental part: as §1
(§2) Arabidopsis primary root growth experiments were done on MS1/2 on vertical standing plates and roots were measured 11 days after germination. Roots were imaged using a flatbed scanner (EPSON Expression 11000XL) and root length was measured using ImageJ software. Arabidopsis shoot biomass was determined in 11 days after germination and growth on vertical standing plates with modMS. Arabidopsis leaf area was measured 21 days after germination on horizontal plates with modMS medium. Plates were scanned from the top using a flatbed scanner (EPSON Expression 11000XL) and the visible leaf area was measured using ImageJ software. Rice plate experiments used vertically standing Petri dishes containing MS1/2 medium (low phosphate—0.001 mM) solidified with 0.8% washed agar. Plant height was measured 11 days after germination. […] Plant height was measured 13 days after germination. […]

For assay [3] the test system is unchanged. Nature of the assay: Root hair number and length quantification, Arabidopsis vertical plate. Type of assay: in vivo. On the procedure:
as §1
Roots were imaged using a stereomicroscope or a VHX-6000. Number and length of the root hairs parallel to the medium surface was determined at 4 to 6 mm above the root meristem. Root hair length was measured using the ImageJ software.

Assay [4] shares this test system. Nature of the assay: Arabidopsis horizontal plate leaf area assay. Type of assay: in vivo. As for the experimental part:
as §1
Arabidopsis primary root growth experiments were done on MS1/2 on vertical standing plates and roots were measured 11 days after germination. Roots were imaged using a flatbed scanner (EPSON Expression 11000XL) and root length was measured using ImageJ software. Arabidopsis shoot biomass was determined in 11 days after germination and growth on vertical standing plates with modMS. Arabidopsis leaf area was measured 21 days after germination on horizontal plates with modMS medium. Plates were scanned from the top using a flatbed scanner (EPSON Expression 11000XL) and the visible leaf area was measured using ImageJ software. Rice plate experiments used vertically standing Petri dishes containing MS1/2 medium (low phosphate—0.001 mM) solidified with 0.8% washed agar. Plant height was measured 11 days after germination. Rice box experiments used modMS medium and a low phosphate condition of 0.025 mM phosphate. Plant height was measured 13 days after germination. All growth experiments occurred with 10 μM of compound and in low phosphate conditions, unless stated otherwise. Controls always received the same DMSO concentration.

The test system of another assay is rice cultivar Nipponbare. As to the kind of experiment: Rice box experiment (plant height). Type of assay: in vivo. As to conditions: low phosphate 0.025 mM, 10 μM compound, 13 days after germination. As for the experimental part: All Arabidopsis plant experiments were performed using the Arabidopsis thaliana Columbia-0 background. The Arabidopsis pSPX1::GUS line is described in the […] 2008, 54: 965-975. For rice, the cultivar Nipponbare was used. For maize, the cultivars DKC 2931 and 8104 were used for regular pot experiments and sand-based pot experiments, respectively. For soybean, the cultivar Primus was used. […] The medium was solidified due to the addition of 0.6% Gelrite, unless stated otherwise. […]
as §2, with “Rice plate experiments used vertically standing Petri dishes containing MS1/2 medium (low phosphate—0.001 mM) solidified with 0.8% washed agar.” left out

The next assay deals with maize cultivar 8104. Nature of the assay: Sand-based maize pot experiment. Type of assay: in vivo. As to conditions: low phosphate, 10 μM compound. As for the experimental part:
as §1
(§3) Regular Arabidopsis, soybean and maize pot experiments used an unfertilized potting soil, which was supplemented at the start of the experiment with 50 ml H2O containing 0.25 g/l NH4NO3 and 0.44 g/l (high phosphate) or no (maize and soybean) or 0.11 g/l KH2PO (Arabidopsis) for low phosphate conditions. For the sand-based maize pot experiment, sand was supplemented with 50 ml H2O containing 0.25 g/l NH4NO3 and 0.38 g/l (high phosphate) or 0.02 g/l (low phosphate) KH2PO4. Potassium was balanced via addition of KCl. Compound concentration was 10 μM, calculated based on the total water content after watering, and was added at the start of the experiment (Arabidopsis) or once a week (maize). Indexed chlorophyll contents were received via a SPAD 502 Plus Chlorophyll Meter. All parameters in the sand experiment, except the rate of leaf 4 (measured the first 4 days after emergence), were measured 19 days after sowing. Measurements in the pot experiments with potting soil were done after 4 weeks of growth, except for leaf 5, which was measured at 26 days. The long term maize pot experiment was performed on the automated Phenovision platform (see Mertens et al, 2021, https://doi.org/10.3389/fpls.2021.640914) with maize cultivars B104 and DKC2931. End point measurements occurred after 90 days (B104) or 70 days (DKC2931). Plants were grown on an unfertilized potting soil, which was fertilized bi-weekly with 50 mL modified Hoagland solution (2.5× concentrated; but with 0.25 mM KH2PO4).

The next assay relates to maize cultivar DKC 2931. As to the kind of experiment: Regular maize pot experiment (potting soil). Type of assay: in vivo. As to conditions: low phosphate, 10 μM compound. As for the experimental part: as §1, §3
Setting [5] is: Arabidopsis vertical plate, 10 μM compound, 11 days after germination.
The mark [6] stands for this setting: Arabidopsis vertical plate, high phosphate.

Each structure is given as a SMILES string. Entries after “also recorded” stand apart in the source; their conditions may differ.

With `CCN(CCCNc1ncnc2nc(N)ccc12)c1ccccc1` [Example 1], the “GUS (SPX1) stained area normalized to the number of seeds” value in assay [1] (50 μM compound, low phosphate modMS liquid medium, 96-well, 7 days after germination, low phosphate control of same plate) stood at 0.3 pixels. Moreover, the “Suppression of the SPX1 biomarker (in words)” value in assay [1] (low phosphate, 7 days of growth, GUS staining, listed as compound 17) is listed as “practically completely suppressed the SPX1 biomarker; also recorded: strongest suppression of SPX1”. Also, the “Primary root length compared with the control without compound (in words)” value in assay [2] (10 μM, 11-day-old Arabidopsis) was “almost double the length of the control”. Also, in assay [2] (setting [5]), the Primary root length was 3.4 cm and the Shoot biomass is on record as 21 mg. The activity at 1 µM in assay [3] (Arabidopsis thaliana, 1 μM compound, read-out: Total root hair length per root (in % compared to the control)) was determined as 749%. Further, in assay [3] (setting [6]), the “Average root hair length per root in high phosphate conditions” value is given as 0.26 mm, the “Root hair number in high phosphate conditions (one plane in 2 mm region)” value is 9 and the “Total root hair length per root in high phosphate conditions” value is recorded as 0.26 cm. The molecule further returned a Leaf area in assay [4] (Arabidopsis horizontal plate, low phosphate, 10 μM compound, 21 days after germination (Table 1)) of 94 mm^2. Further, the “Leaf area in suboptimal phosphate conditions” value in assay [4] (Arabidopsis horizontal plate, suboptimal phosphate (600 μM), 10 μM compound) was determined as 120 mm^2. This molecule also returned an Average leaf area in assay [4] (Arabidopsis horizontal plates (Table 4), control without compound 63) of 66 mm^2. Further, in the assay with rice cultivar Nipponbare, the Plant height was 4.1 cm. In the assay with maize cultivar 8104 (19 days after sowing), this molecule showed a Crown root number of 8 and a Plant height of 27 cm. The Indexed chlorophyll content with maize cultivar 8104 (SPAD meter, 19 days after sowing) turned out to be 31. For the same molecule, in the assay with maize cultivar 8104 (first 4 days after emergence), the “Growth rate of leaf 4” value worked out at 2.64 cm/day. In the assay on maize cultivar DKC 2931 (4 weeks), this molecule came in with a Plant height of 59 cm and a Shoot weight of 4 g. For the same molecule, the “Leaf 5” value in the assay with maize cultivar DKC 2931 (26 days) is 43 cm.
